Experimental data: US7371411B2, “Methods for production of the oxidized glutathione composite with CIS-diamminedichloroplatinum and pharmaceutical compositions based thereof regulating metabolism, proliferation, differentiation and apoptotic mechanisms for normal and transformed cells” (Novelos Therapeutics, Inc., priority 1998, dated 2008)

Legend:
[1] = test system: chronic viral hepatitis B (HBV); assay: Patients with chronic viral hepatitis B; assay type: in vivo, human
Method: Previous treatment: from 17 Sep. 1997 the patient was administered with acyclovir during 21 days.

normal human lymphocytes = assay: Growth and apoptotic DNA degradation, normal human lymphocytes; conditions: 100 mg/mL, 24, 48 hours
Method: Venous blood of healthy volunteers was collected into heparinized test-tubes, which had been tested for endotoxin. A mononuclear fraction of blood leukocytes was obtained by centrifugation in ficoll-metrizoat gradient (Histopaque, Sigma). Cell concentration was adjusted to 2×10^6 cells per 1 ml of cell culture medium (RPMI 1640), containing 20 mM HEPES, 2 mM glutamine, 50 mg/mL gentamicin and 10% fetal calf serum. Cell viability was estimated by the Trypan blue exclusion method, then the cell suspension was placed into wells of 24- and 96-well microliter plates—250,000 cells per well.
(§1) The effect testing for the testing articles was performed 24, 48 hours after addition into the culture.
The analysis procedure involved the following: after 24-48 hour incubation there were calculated the total cell count and the dead cell count by the Trypan blue exclusion method; afterwards the cell suspension was centrifuged (at 12.000 g, in Eppendorf test-tubes during 10 min). The cell pellet was frozen and kept at −70° C. before the DNA separation. The DNA separation was conducted by Kirbi-Georgiyev phenol method. […] Then it was diluted in 10 mL of the A buffer; the DNA amount was determined by Dishe method and electrophoresis was performed in 2% agarose gel (agarose with NA grade made by “Pharmacia LKB, Biotechnology Inc” (Austria) was used). […]

CP-treated mice = assay: Cyclophosphamide-induced hemo- and immunodepression, murine model; conditions: CP 50 mg/kg; 5 mg/kg intraperitoneally daily for five days; day 8
Text: The study was designed to evaluate the effect of a five-day long administration of the test articles on the capability of the CP-treated murine splenocytes to produce interleukin-1 (IL-1 α,b); interleukin-2 (IL-2); interleukin-3 (IL-3); interleukin-4 (IL-4); interleukin-6 (IL-6), interleukin-8 (IL-8); interleukin-10 (IL-10); interleukin-12 (IL-12); tumor necrosis factor-α, g (TNF-α, g), interferon-α, g (IFN-α, g) and G-CSF, M-CSF, GM-CSF in vitro. In addition, the blood leukocyte and lymphocyte count and the bone marrow cellularity (karyocyte count) were determined at eight days after CP administration. Some animals receiving CP were then challenged with sheep red blood cells (SRBC), and the humoral immune response to the antigen was evaluated.
Male CBA mice (180 to 200 g body weight) were given a single introperitoneal injection of CP in a dose of 50 mg/kg. Four groups of animals (with no less than 15 mice in each) were formed.
#3—animals receiving a single CP injection, which further were treated with the test article (GSSG dissolved in normal saline) in a dose of 5 mg/kg;
Twenty-four hours after the CP injection, five animals in each group were immunized with SRBC (10^7 cells in 0.5 mL of NS, intra-peritoneally).
Injections were performed during five days: once a day, daily. […]

HL-60 myeloid line cells = assay: Growth and apoptotic DNA degradation, HL-60 cells; conditions: 100 mg/mL
Method: The HL-60 myeloid line cells were grown in RPMI-1640 medium with addition of 10% fetal calf serum. Cultivation was carried out in closed flasks, the medium volume was 12 mL, it was replaced every four days.
as §1
The analysis procedure involved the following: after 24-48 hour incubation there were calculated the total cell count and the dead cell count by the Trypan blue exclusion method; afterwards the cell suspension was centrifuged (at 12.000 g, in Eppendorf test-tubes during 10 min).
The HL-60 cell culture is human cells of myeloluekosis origin defective in the p53 gene.

[2] = test system: glutathione reductase, glutathione-peroxidase, glutathione-S-transferase, γ-glutamyl-transpeptidase; conditions: intravenous, 2 mg/kg
Method: In addition, the activity variation of the enzymes participating in GSSG metabolism was evaluated (glutathione reductase, glutathione-peroxidase, glutathione-S-transferase,γ-glutamyl-transpeptidase).
Activity of the enzymes participating in the GSSG metabolism (glutathione reductase: EC. 1.6.4.2; glutathione-peroxidase: EC. 1.11.1.9; glutathione-S-transferase: EC.2.5.1.18; g-glutamyl-transpeptidase: EC.2.3.2.2) were determined by the standard reagent kits produced by Boehringer Mannheim GmbH.

[3] = test system: human peripheral blood mononuclear leukocytes; conditions: 0.5-5000 mg/mL, ConA, 24 hours
Method: Oxidized glutathione (GSSG) as well as a structural analog thereof, which is a hexapeptide with a stabilized disulfide bond, were evaluated for their effect on cytokine production by human peripheral blood mononuclear leukocytes in vitro.
The leukocytic cytokine production was triggered by adding a mitogen, concanavalin A (ConA) to the cell culture immediately after introducing the test substances. In 24 hours of the cellular exposure to ConA and the test articles, the culture supernatants were sampled and stored until cytokine determination at −70° C. […]
Each concentration was established in no less than six wells by adding 50 mL of medium containing the appropriate quantity of the previously dissolved test articles. […]
Immediately after the test articles had been introduced into the cultures, 50 mL of medium containing ConA (Sigma, cell culture tested) in a quantity required for a final concentration of 4.0 mg/mL, was added to all the wells excepting three additional ones which served for evaluation of spontaneous ^3H-thymidine uptake (without ConA). […]
The filters were dried and their radioactivity (counts per minute, cpm) was determined using liquid scintillation counter, Betaplate 1205 (LKB). […]

[4] = test system: mice irradiated in a dose of 1 Gy; conditions: 5 mg/kg intraperitoneally daily for seven days, 8th day
Text: The study was designed to evaluate efficacy of seven-day daily administration of the test articles (with the dosing started two hours post-exposure) on the capability of the splenocytes from mice exposed to radiation to produce interleukin-1 (IL-1 α,b); interleukin-2 (IL-2); interleukin-3 (IL-3); interleukin-4 (IL-4); interleukin-6 (IL-6), interleukin-8 (IL-8); interleukin-10 (IL-10); interleukin-12 (IL-12); tumor necrosis factor-α, g (TNF-α, g), interferon-α, g (IFN-α,) and G-CSF, M-CSF, GM-CSF in vitro. In addition, the blood leukocyte and lymphocyte counts and the spleen and bone marrow cellularity (karyocyte count), as we well as splenic and medullary colony-stimulating capacity, were determined at the 8th day post-exposure.
Male CBA mice (18 to 20 g body weight) were irradiated with single dose of 180 kV X-rays filtered with 0.5 mm Cu (at 15 mA, distance—70 cm, duration two min. and 28 sec.). The total absorbed dose comprised approximately 1 Gy. […]
Additionally, hemopoietic colony-formation ability of spleen and bone marrow cells was assessed by the method of colony-forming unit (CFU) direct count in the spleens of irradiated singenic CBA mice receiving intravenously spleen or bone marrow cells obtained from animals of control or test groups.

stomach cancer = assay: Patient with stomach cancer, peritoneal metastases, ascites, splenomegaly and cholestatic hepatitis
Method: A patient was diagnosed as having stomach neoplasm for more than two years (adenocarcinoma of moderate differentiation degree).
A decision was taken to apply GSSG drug form. The drug was injected parenterally (intramuscularly and intravenously), and additionally, the drug form was used via local injections around the tumor tissue through an endoscope. An average doses which were used for intramuscular and intravenous injections—0.1-0.5 mg/kg, and for local injections—up to 50 mg in situ. Parenteral injections of the drug were applied every other day, b.i.d. (intravenous injections at the morning, and intramuscular ones at the evening), during three weeks, and after that, two times a week during four weeks. The drug introduction through the endoscope was performed once in seven days.
The tumor was solid-like type. Stomach walls were rigid. Histology examination defined the tumor as a moderate degree differentiation adenocarcinoma. […] The drug was introduced according to the identical regime: parenterally (intramuscularly and intravenously), and additionally, the drug form was introduced via local injections around the tumor tissue through an endoscope. An average doses which were used for intramuscular and intravenous injections—0.1-0.5 mg/kg, and for local injections—up to 50 mg in situ. Parenteral injections of the drug were applied every other day, b.i.d. (intravenous injections at the morning, and intramuscular ones at the evening), during three weeks, and after that, two times in a week during four weeks. The drug introduction through the endoscope was performed once in seven days.

[5] = patient No. 4, previous treatment during 21 days
[6] = two months after treatment start

Nc1nc2c(ncn2COCCO)c(=O)[nH]1 [acyclovir]
ALT after the course completion [1, 5]: 2.1 mmol/h/L | Hbs Ag degree [1, 5]: did not change | bilirubin after the course completion [1, 5]: 32 mmoVL

bis-(γ-L-glutamyl)-L-cysteinyl-bis-glycine [GSSG]
liver protrusion beyond the costal arch after the treatment course ([1]; patient No. 3 (GSSG, before 2 cm), patient No. 4 (GSSG.Pt, before 2.5 cm)): 0.5 cm | normal cell proliferation (normal human lymphocytes): stimulated the normal cell proliferation | cytokine and hemopoietic factor production by splenocytes (CP-treated mice): only exiguous stimulating effect | DNA electrophoresis (apoptotic ladder) (HL-60 myeloid line cells; 24 and 48 hours): revealed the DNA oligonucleosomic degradation | high molecular DNA in the apoptotic ladder (HL-60 myeloid line cells; FIG. 14): contained considerable amount of the high molecular DNA | dead HL-60 cell quantity (HL-60 myeloid line cells; Trypan blue exclusion): reliably lower than the one after the GSSG.Pt effect | activity of the enzymes participating in the thiol (glutathione) metabolism [2]: increases approximately two times the activity | cytokine production by human mononuclear leukocytes [3]: statistically significant and dose-dependent stimulation of the cytokine production | cytokine and hemopoietic factor production by splenocytes [4]: less significant effect | tumor size decrease (stomach cancer; fibrogastrocopy data): 40% | hematology and blood chemistry indices (stomach cancer; [6]): substantial improvement of hematology and blood chemistry indices | liver protrusion below the costal arch (stomach cancer; [6]): 3 cm | tumor extent at fibrogastroscopy (stomach cancer; two months after treatment start, before: about 8 cm (GSSG course), about 6 cm (GSSG.Pt course)): 4.8 cm
